Where two headings read alike, the source gives them in different places.
Experiments:
Type in all cases: cell-based
CFTR-S549N = target: T1, CFTR-S549N (Homo sapiens, UniProt P13569, S549N); test: YFP-halide influx assay for the CFTR-S549N
T1 construct: expressed in transfected cells
From the text: (§1) The YFP halide influx assay measures the functionality of the cystic fibrosis Transmembrane Conductance regulator (CFTR) channels. The assay is used to evaluate the capacity of compounds to increase the channel opening of existing mutant CFTR channels in the membrane. It makes use of the observation that the yellow fluorescent protein (YFP) variant YFP H148Q, I152L, […] has its fluorescence substantially quenched by halide ions like Cl^− and I^−. (Galietta, Haggie, & Verkman, 2001)
(§2) For this purpose, HEK293-cells are seeded in 96 well plates. During seeding, the cells are reverse-transfected with plasmid vectors that direct the expression of the CFTR G551D mutant and of the YFP reporter. Cells are incubated at 37° C., 5% CO2 for 24 hours so as to allow for sufficient expression of the CFTR protein.
(§3) The I^−-induced quenching of fluorescence is recorded immediately after injection of I^− for 7 seconds. The capacity of a compound to increase the channel opening is directly correlated with the decrease in fluorescence, and is expressed as (1-(fluorescence after 7 seconds (F)/fluorescence before injection (F0))) and an EC50 can be derived from a (1-F/F0) vs compound concentration plot.
(§4) Similar YHA assays were developed for other channel gating defective or channel conductance defective CFTR mutants to determine effect of compound on channel activity. Examples of mutants are G178R, G1349D, S549N, R117H, R334W. This assay is also used for additional class I CFTR mutants, including G542X, W1282X; class II mutants including N1303K, and for class III mutants including S1251N.

CFTR G551D mutant = target: T2, CFTR G551D mutant (Homo sapiens, UniProt P13569, G551D); test: YFP-halide influx assay for the CFTR-G551D mutation; settings: HEK293 cells, forskolin 10.67 μM
T2 construct: expressed in transfected cells; host or cells: HEK293 (reverse transfection with plasmid)
T2 sequence (P13569 whole entry G551D): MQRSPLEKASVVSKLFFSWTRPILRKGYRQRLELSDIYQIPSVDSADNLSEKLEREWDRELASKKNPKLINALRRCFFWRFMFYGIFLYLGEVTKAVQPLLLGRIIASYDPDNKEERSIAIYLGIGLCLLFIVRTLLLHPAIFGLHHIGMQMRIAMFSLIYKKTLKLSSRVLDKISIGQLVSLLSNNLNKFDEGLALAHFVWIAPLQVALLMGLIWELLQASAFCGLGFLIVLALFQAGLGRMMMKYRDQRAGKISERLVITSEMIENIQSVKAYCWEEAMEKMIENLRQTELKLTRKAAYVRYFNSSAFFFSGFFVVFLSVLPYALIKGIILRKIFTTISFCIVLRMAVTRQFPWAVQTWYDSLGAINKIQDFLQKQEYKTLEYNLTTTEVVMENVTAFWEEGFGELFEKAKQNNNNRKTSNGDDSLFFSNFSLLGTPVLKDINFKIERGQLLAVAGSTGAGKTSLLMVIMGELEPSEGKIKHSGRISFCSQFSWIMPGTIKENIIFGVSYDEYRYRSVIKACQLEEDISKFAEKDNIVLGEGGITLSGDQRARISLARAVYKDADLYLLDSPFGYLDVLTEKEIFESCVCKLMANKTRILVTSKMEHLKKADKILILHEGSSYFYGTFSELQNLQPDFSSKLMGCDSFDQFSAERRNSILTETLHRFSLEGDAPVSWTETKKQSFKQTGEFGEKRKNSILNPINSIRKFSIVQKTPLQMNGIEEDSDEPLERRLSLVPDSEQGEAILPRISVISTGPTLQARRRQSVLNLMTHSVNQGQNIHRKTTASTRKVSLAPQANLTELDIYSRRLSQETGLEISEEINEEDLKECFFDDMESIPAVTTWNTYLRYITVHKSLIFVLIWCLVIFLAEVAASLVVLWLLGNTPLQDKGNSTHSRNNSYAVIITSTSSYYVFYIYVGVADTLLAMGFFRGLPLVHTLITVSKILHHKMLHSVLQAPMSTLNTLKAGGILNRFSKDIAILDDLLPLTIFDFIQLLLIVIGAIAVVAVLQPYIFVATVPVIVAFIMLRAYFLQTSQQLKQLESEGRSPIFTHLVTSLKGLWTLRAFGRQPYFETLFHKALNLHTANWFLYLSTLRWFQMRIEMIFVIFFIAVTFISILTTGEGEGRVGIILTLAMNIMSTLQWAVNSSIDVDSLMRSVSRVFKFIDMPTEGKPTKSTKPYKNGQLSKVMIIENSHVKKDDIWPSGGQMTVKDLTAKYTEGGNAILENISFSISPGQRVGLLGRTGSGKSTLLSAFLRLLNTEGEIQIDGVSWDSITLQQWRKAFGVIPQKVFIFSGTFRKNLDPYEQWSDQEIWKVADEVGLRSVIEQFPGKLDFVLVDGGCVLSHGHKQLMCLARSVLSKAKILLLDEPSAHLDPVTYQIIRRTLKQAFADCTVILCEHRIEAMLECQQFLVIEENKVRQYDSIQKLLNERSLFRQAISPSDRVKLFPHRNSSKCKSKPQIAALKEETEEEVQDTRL
Method in brief: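 Channel opening potentiation measured as 1−F/F0, where F is YFP fluorescence 7 s after iodide injection and F0 before; EC50 taken from concentration plot. Cells: HEK293 transiently expressing CFTR G551D plus halide-sensitive YFP (H148Q, I152L, F47L), 24 h at 37 °C, 5% CO2.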

CFTR-G1349D = target: T3, CFTR-G1349D (Homo sapiens, UniProt P13569, G1349D); test: YFP-halide influx assay for the CFTR-G1349D
T3 construct: expressed in transfected cells
T3 sequence (P13569 whole entry G1349D): as the sequence (P13569 whole entry G551D) above, with D551G, G1349D counted along it
From the text: as §1, §2, §3, §4

CFTR-G178R = target: T4, CFTR-G178R (Homo sapiens, UniProt P13569, G178R); test: YFP-halide influx assay for the CFTR-G178R
T4 construct: expressed in transfected cells
T4 sequence (P13569 whole entry G178R): as the sequence (P13569 whole entry G551D) above, with G178R, D551G counted along it
From the text: as §1, §2, §3, §4

CFTR-R117H = target: T5, CFTR-R117H (Homo sapiens, UniProt P13569, R117H); test: YFP-halide influx assay for the CFTR-R117H
T5 construct: expressed in transfected cells
T5 sequence (P13569 whole entry R117H): as the sequence (P13569 whole entry G551D) above, with R117H, D551G counted along it
From the text: as §1, §2, §3, §4

CFTR ΔF508 mutant = target: T6, CFTR ΔF508 mutant (Homo sapiens, UniProt P13569, DEL508-508); test: YFP-halide influx assay for the CFTR-ΔF508 mutation (384 well, FDSS/μCell); settings: CFBE41o- cells, CFTR-ΔF508, 1×D-PBS, fluorescence after 36 seconds
T6 construct: expressed in transfected cells; host or cells: CFBE41o- (adenoviral transduction)
T6 sequence (P13569 with tags, fused parts or gaps DEL508-508): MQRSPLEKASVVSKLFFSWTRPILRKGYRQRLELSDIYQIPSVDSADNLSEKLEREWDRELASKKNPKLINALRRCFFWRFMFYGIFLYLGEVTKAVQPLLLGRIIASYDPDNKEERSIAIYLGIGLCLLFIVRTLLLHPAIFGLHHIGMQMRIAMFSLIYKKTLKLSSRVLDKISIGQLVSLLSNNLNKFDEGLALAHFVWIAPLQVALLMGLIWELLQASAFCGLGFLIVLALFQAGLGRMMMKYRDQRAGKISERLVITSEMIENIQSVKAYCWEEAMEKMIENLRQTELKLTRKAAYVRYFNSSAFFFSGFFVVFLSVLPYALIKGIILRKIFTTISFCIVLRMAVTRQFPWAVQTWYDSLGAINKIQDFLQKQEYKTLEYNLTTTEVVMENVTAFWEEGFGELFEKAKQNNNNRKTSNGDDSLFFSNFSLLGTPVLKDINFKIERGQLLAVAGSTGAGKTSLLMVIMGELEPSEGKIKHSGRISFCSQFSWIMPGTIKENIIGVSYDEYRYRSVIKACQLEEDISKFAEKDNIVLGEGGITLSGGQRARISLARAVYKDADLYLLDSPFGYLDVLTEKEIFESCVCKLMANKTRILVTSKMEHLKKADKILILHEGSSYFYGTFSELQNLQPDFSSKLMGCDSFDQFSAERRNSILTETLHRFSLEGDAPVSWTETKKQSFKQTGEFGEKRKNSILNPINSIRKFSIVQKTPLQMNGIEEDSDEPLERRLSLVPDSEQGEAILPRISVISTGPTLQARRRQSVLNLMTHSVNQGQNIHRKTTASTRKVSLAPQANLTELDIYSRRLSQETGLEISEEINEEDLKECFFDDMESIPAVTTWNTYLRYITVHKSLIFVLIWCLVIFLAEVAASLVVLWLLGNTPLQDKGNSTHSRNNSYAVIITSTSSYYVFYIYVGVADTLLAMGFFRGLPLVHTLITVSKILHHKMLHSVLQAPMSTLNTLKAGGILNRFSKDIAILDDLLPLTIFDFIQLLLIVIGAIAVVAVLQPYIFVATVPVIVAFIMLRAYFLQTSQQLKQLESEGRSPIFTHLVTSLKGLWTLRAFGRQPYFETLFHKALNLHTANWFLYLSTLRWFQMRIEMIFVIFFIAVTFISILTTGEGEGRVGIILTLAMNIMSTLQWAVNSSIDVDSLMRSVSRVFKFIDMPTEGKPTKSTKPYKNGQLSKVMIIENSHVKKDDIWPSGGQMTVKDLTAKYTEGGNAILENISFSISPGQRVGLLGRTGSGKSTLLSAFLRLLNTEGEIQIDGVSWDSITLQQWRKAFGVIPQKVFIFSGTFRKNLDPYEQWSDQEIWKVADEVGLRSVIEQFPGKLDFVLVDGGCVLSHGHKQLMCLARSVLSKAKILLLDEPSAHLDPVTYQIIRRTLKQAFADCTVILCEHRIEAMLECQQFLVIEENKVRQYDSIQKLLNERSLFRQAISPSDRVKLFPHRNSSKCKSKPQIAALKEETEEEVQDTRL
Method in brief: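 Potentiator read-out as 1−F/F0, F taken 36 s after iodide addition, EC50 fitted against compound concentration. Cells: CFBE41o- expressing ΔF508 CFTR plus halide-sensitive YFP via adenovirus, rescued by 27 °C for 24 h or 24 h modulator at 37 °C.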

T1 sequence (P13569 whole entry S549N): as the sequence (P13569 whole entry G551D) above, with S549N, D551G counted along it

Row | Structure (SMILES) | EC50 (CFTR-S549N) | EC50 (CFTR G551D mutant) | EC50 (CFTR-G1349D) | EC50 (CFTR-G178R) | EC50 (CFTR-R117H) | EC50 (CFTR ΔF508 mutant) | EC50 (CFTR-S549N; class symbol) | EC50 (CFTR G551D mutant; class symbol)
1 | CC(C)(O)C(=O)Nc1sc(S(=O)(=O)c2ccc(OC(F)(F)F)c(F)c2)cc1C(N)=O [Compound 377, 5-[3-fluoro-4-(trifluoromethoxy)phenyl] sulfonyl-2-[(2-hydroxy-2-methyl-propanoyl)amino] thiophene-3-carboxamide] | 935 nM | 711 nM | 135 nM | 241 nM | 779 nM | 40.5 nM | – | –
2 | C[C@@H](CO)C(=O)Nc1sc(S(=O)(=O)c2ccc(OC(F)(F)F)cc2)cc1C(N)=O [Compound 379, 2-[[(2S)-3-hydroxy-2-methyl-propanoyl]amino]-5-[4-(trifluoromethoxy)phenyl] sulfonyl-thiophene-3-carboxamide] | 155 nM | 655 nM | 58.6 nM | 75.8 nM | 96.7 nM | 16.7 nM | – | –
3 | CC(C)(O)C(=O)Nc1sc(S(=O)(=O)c2ccc(OC(F)F)cc2)cc1C(N)=O [Compound 380, 5-[4-(difluoromethoxy)phenyl] sulfonyl-2-[(2-hydroxy-2-methyl-propanoyl)amino] thiophene-3-carboxamide] | 387 nM | 450 nM | 276 nM | 107 nM | 144 nM | 17.6 nM | – | –
4 | CC(CO)C(=O)Nc1sc(S(=O)(=O)c2ccc(Cl)cc2OC(F)(F)F)cc1C(N)=O (stereo not drawn) [Compound 387, 5-[4-chloro-2-(trifluoromethoxy)phenyl] sulfonyl-2-[(3-hydroxy-2-methyl-propanoyl)amino] thiophene-3-carboxamide] | 210 nM | 1410 nM | 83.6 nM | 87.6 nM | 49.5 nM | 22.3 nM | – | –
5 | CC(C)(O)C(=O)Nc1sc(S(=O)(=O)c2cc(Cl)ccc2OC(F)(F)F)cc1C(N)=O [Compound 391, 5-[5-chloro-2-(trifluoromethoxy)phenyl] sulfonyl-2-[(2-hydroxy-2-methyl-propanoyl)amino] thiophene-3-carboxamide] | 42.1 nM | 53.2 nM | 25.9 nM | 12.9 nM | 33.8 nM | 14.9 nM | – | –
6 | CC(C)(O)C(=O)Nc1sc(S(=O)(=O)c2ccc(C#N)cc2OC(F)(F)F)cc1C(N)=O [Compound 393, 5-[4-cyano-2-(trifluoromethoxy)phenyl] sulfonyl-2-[(2-hydroxy-2-methyl-propanoyl)amino] thiophene-3-carboxamide] | 256 nM | 662 nM | 159 nM | 56.7 nM | 47.6 nM | 14.8 nM | – | –
7 | CC(C)(O)C(=O)Nc1sc(S(=O)(=O)c2cc(Cl)ccc2OC(F)F)cc1C(N)=O [Compound 401, 5-[5-chloro-2-(difluoromethoxy)phenyl] sulfonyl-2-[(2-hydroxy-2-methyl-propanoyl)amino] thiophene-3-carboxamide] | 91.4 nM | 126 nM | 49.3 nM | 105 nM | 86.5 nM | 6.53 nM | – | –
8 | COc1cc(S(=O)(=O)c2cc(C(N)=O)c(NC(=O)C(C)(C)O)s2)c(OC(F)F)cc1F [Compound 402, 5-[2-(difluoromethoxy)-4-fluoro-5-methoxy-phenyl] sulfonyl-2-[(2-hydroxy-2-methyl-propanoyl)amino] thiophene-3-carboxamide] | 1020 nM | 1400 nM | 3330 nM | 248 nM | 273 nM | 25.6 nM | – | –
9 | CC(C)(O)C(=O)Nc1sc(S(=O)(=O)c2cc(F)c(F)cc2OC(F)F)cc1C(N)=O [Compound 404, 5-[2-(difluoromethoxy)-4,5-difluoro-phenyl] sulfonyl-2-[(2-hydroxy-2-methyl-propanoyl)amino] thiophene-3-carboxamide] | 1810 nM | 553 nM | 1490 nM | 126 nM | 283 nM | 14.3 nM | – | –
10 | CC(C)(O)C(=O)Nc1sc(S(=O)(=O)c2c(F)cc(F)cc2OC(F)F)cc1C(N)=O [Compound 405, 5-[2-(difluoromethoxy)-4,6-difluoro-phenyl]sulfonyl-2-[(2-hydroxy-2-methyl-propanoyl)amino] thiophene-3-carboxamide] | 1370 nM | 4520 nM | 3330 nM | > 1000 nM | 155 nM | 19.6 nM | – | –
11 | CC(C)(O)C(=O)Nc1sc(S(=O)(=O)c2ccc(C#N)cc2C(F)(F)F)cc1C(N)=O [Compound 407, 5-[4-cyano-2-(trifluoromethyl)phenyl] sulfonyl-2-[(2-hydroxy-2-methyl-propanoyl)amino] thiophene-3-carboxamide] | 2860 nM | 3330 nM | 3330 nM | 1530 nM | 262 nM | 50.6 nM | – | –
12 | CC(C)(O)C(=O)Nc1sc(S(=O)(=O)c2cccc(C(F)(F)F)c2)cc1C(N)=O [Compound 408, 2-[(2-hydroxy-2-methyl-propanoyl)amino]-5-[3-(trifluoromethyl)phenyl]sulfonyl-thiophene-3-carboxamide] | 525 nM | 1770 nM | 149 nM | 42.7 nM | 535 nM | 11 nM | – | –

Other lines, results leading:

Row | EC50 (CFTR-S549N) | EC50 (CFTR G551D mutant) | EC50 (CFTR-G1349D) | EC50 (CFTR-G178R) | EC50 (CFTR-R117H) | EC50 (CFTR ΔF508 mutant) | EC50 (CFTR-S549N; class symbol) | EC50 (CFTR G551D mutant; class symbol) | Structure (SMILES)
13 | 251 nM | 522 nM | 173 nM | 86.9 nM | 138 nM | 8.07 nM | – | – | CC(C)(O)C(=O)Nc1sc(S(=O)(=O)c2ccc(C(F)(F)F)cc2F)cc1C(N)=O [Compound 376, 5-[2-fluoro-4-(trifluoromethyl)phenyl] sulfonyl-2-[(2-hydroxy-2-methyl-propanoyl)amino] thiophene-3-carboxamide]
14 | 531 nM | 813 nM | 204 nM | 91.5 nM | 247 nM | 46.3 nM | – | – | CC(C)(O)C(=O)Nc1sc(S(=O)(=O)c2ccc(C(F)(F)F)nc2)cc1C(N)=O [Compound 389, 2-[(2-hydroxy-2-methyl-propanoyl)amino]-5-[[6-(trifluoromethyl)-3-pyridyl]sulfonyl] thiophene-3-carboxamide]
15 | 322 nM | 668 nM | 293 nM | 103 nM | 221 nM | 44.1 nM | – | – | CC(C)(O)C(=O)Nc1sc(S(=O)(=O)c2cc(C(F)(F)F)ncc2Cl)cc1C(N)=O [Compound 390, 5-[[5-chloro-2-(trifluoromethyl)-4-pyridyl]sulfonyl]-2-[(2-hydroxy-2-methyl-propanoyl)amino] thiophene-3-carboxamide]
16 | – | – | 3330 nM | 3330 nM | 3320 nM | 354 nM | > 1000 nM | > 1000 nM | CC(C)(O)C(=O)Nc1sc(S(=O)(=O)c2cnc(C(F)(F)F)nc2)cc1C(N)=O [Compound 394, 2-[(2-hydroxy-2-methyl-propanoyl)amino]-5-[2-(trifluoromethyl)pyrimidin-5-yl]sulfonyl-thiophene-3-carboxamide]
17 | 678 nM | 1790 nM | 413 nM | 417 nM | 259 nM | 30.7 nM | – | – | CC(C)(O)C(=O)Nc1sc(S(=O)(=O)c2cnc(C(F)(F)F)cn2)cc1C(N)=O [Compound 397, 2-[(2-hydroxy-2-methyl-propanoyl)amino]-5-[5-(trifluoromethyl)pyrazin-2-yl]sulfonyl-thiophene-3-carboxamide]
18 | 104 nM | 708 nM | 120 nM | 80.1 nM | 138 nM | 14.1 nM | – | – | CC(C)(O)C(=O)Nc1sc(S(=O)(=O)c2ncc(C(F)(F)F)cc2F)cc1C(N)=O [Compound 410, 5-[[3-fluoro-5-(trifluoromethyl)-2-pyridyl]sulfonyl]-2-[(2-hydroxy-2-methyl-propanoyl)amino] thiophene-3-carboxamide]
